The subject of this test is BDF1 mice, P1081 chloroleukemia ip, survival T/C. Briefly: NCI In Vivo Anticancer Drug Screen. Data for tumor model P1081 Chloroleukemia (intraperitoneal) in B6D2F1 (BDF1) mice. The following applies: endpoint: mean survival time, higher = longer survival. As to the method:
The antitumor activity of compounds was measured in mice bearing transplantable tumors. Survival or tumor size were measured and the results are expressed as the measurement made in the treated group (T) divided by the measurement made in the vehicle treated control group (C). The tumor model used in this assay is P1081 Chloroleukemia (intraperitoneal) in B6D2F1 (BDF1) mice

The mark [1] stands for this setting: dose: 3.1 mg/kg/injection, schedule: Q01DX Z (ip), vehicle: carboxymethylcellulose (CMC).
[2] abbreviates: dose: 6.25 mg/kg/injection, schedule: Q01DX Z (ip), vehicle: carboxymethylcellulose (CMC).
Where [3] appears, read: dose: 12.5 mg/kg/injection, schedule: Q01DX Z (ip), vehicle: carboxymethylcellulose (CMC).
Setting [4] is: dose: 25.0 mg/kg/injection, schedule: Q01DX Z (ip), vehicle: carboxymethylcellulose (CMC).
[5] abbreviates: dose: 25.0 mg/kg/injection, schedule: Q01DX010 (ip), vehicle: saline.
Where [6] appears, read: dose: 50.0 mg/kg/injection, schedule: Q01DX010 (ip), vehicle: saline.
[7] abbreviates: dose: 8.0 mg/kg/injection, schedule: Q01DX Z (ip), vehicle: carboxymethylcellulose (CMC).

Several values for one entry are separate records, joined by “and”; a condition that tells them apart may be missing. Equal values may be shown once. Toxic doses and inconclusive results are not listed.

Take `Cn1c(N)nc2nc[nH]c2c1=S`: the T/C (dose: 1.6 mg/kg/injection, schedule: Q01DX Z (ip), vehicle: carboxymethylcellulose (CMC)) is 92 % of control; the T/C under setting [1] was 95 % of control; the T/C under setting [2] was 95 % of control and 98 % of control; the T/C (dose: 10.0 mg/kg/injection, schedule: Q01DX010 (ip), vehicle: saline) was 120 % of control and 100 % of control; the T/C under setting [3] was 96 % of control and 102 % of control; the T/C (dose: 20.0 mg/kg/injection, schedule: Q01DX010 (ip), vehicle: saline) is 105 % of control. In addition, the T/C was 96 % of control and 100 % of control and 105 % of control under setting [4]; 98 % of control and 104 % of control (dose: 50.0 mg/kg/injection, schedule: Q01DX Z (ip), vehicle: carboxymethylcellulose (CMC)); 98 % of control and 102 % of control (dose: 100.0 mg/kg/injection, schedule: Q01DX Z (ip), vehicle: carboxymethylcellulose (CMC)).
For the compound `Nc1nc(N)c2nc(CNc3ccc(C(=O)NC(CCC(=O)O)C(=O)O)cc3)cnc2n1` (configuration not stated), the T/C was 120 % of control (dose: 0.05 mg/kg/injection, schedule: Q01DX010 (ip), vehicle: other); 160 % of control and 170 % of control (dose: 0.2 mg/kg/injection, schedule: Q01DX010 (ip), vehicle: other); 90 % of control (dose: 0.4 mg/kg/injection, schedule: Q01DX010 (ip), vehicle: other); 117 % of control (dose: 8.0 micrograms/kg/injection, schedule: Q01DX Z (ip), vehicle: alkali diluted with saline); 107 % of control (dose: 16.0 micrograms/kg/injection, schedule: Q01DX Z (ip), vehicle: alkali diluted with saline); 99 % of control (dose: 31.0 micrograms/kg/injection, schedule: Q01DX Z (ip), vehicle: alkali diluted with saline).
As for `Oc1cc(CN(CCCl)CCCl)c(O)cc1CN(CCCl)CCCl`, the T/C (dose: 0.06 mg/kg/injection, schedule: Q01DX Z (sc), vehicle: steriod suspending solution) was 101 % of control; the T/C (dose: 0.12 mg/kg/injection, schedule: Q01DX Z (sc), vehicle: steriod suspending solution) is 109 % of control; the T/C (dose: 0.24 mg/kg/injection, schedule: Q01DX Z (sc), vehicle: steriod suspending solution) was 114 % of control; the T/C (dose: 0.49 mg/kg/injection, schedule: Q01DX Z (sc), vehicle: steriod suspending solution) is 172 % of control; the T/C (dose: 0.63 mg/kg/injection, schedule: Q01DX010 (ip), vehicle: saline) was 110 % of control and 100 % of control; the T/C (dose: 0.99 mg/kg/injection, schedule: Q01DX Z (sc), vehicle: steriod suspending solution) was 175 % of control. Moreover, the T/C is 120 % of control and 104 % of control (dose: 1.25 mg/kg/injection, schedule: Q01DX010 (ip), vehicle: saline); 122 % of control (dose: 2.5 mg/kg/injection, schedule: Q01DX010 (ip), vehicle: saline); 104 % of control (dose: 3.75 mg/kg/injection, schedule: Q01DX Z (sc), vehicle: steriod suspending solution); 115 % of control and 118 % of control (dose: 5.0 mg/kg/injection, schedule: Q01DX010 (ip), vehicle: saline); 110 % of control and 101 % of control (dose: 7.5 mg/kg/injection, schedule: Q01DX Z (sc), vehicle: steriod suspending solution).
As for `COc1cc2c(c(OC)c1OC)-c1ccc(OC)c(=O)cc1[C@@H](NC(C)=O)CC2`, the T/C reads like this: (dose: 0.08 mg/kg/injection, schedule: Q01DX Z (ip), vehicle: saline) 112 % of control; (dose: 0.16 mg/kg/injection, schedule: Q01DX Z (ip), vehicle: saline) 114 % of control; (dose: 0.6 mg/kg/injection, schedule: Q01DX Z (ip), vehicle: saline) 151 % of control; (dose: 0.63 mg/kg/injection, schedule: Q01DX Z (ip), vehicle: saline) 177 % of control.
As for `CSc1ncnc2c1ncn2C1OC(CO)C(O)C1O` (configuration not stated), the T/C is 105 % of control and 92 % of control under setting [1]; 102 % of control under setting [2]; 105 % of control and 90 % of control under setting [3]; 105 % of control and 98 % of control under setting [4].
In the case of `CN(C)/N=N/c1nc[nH]c1C(N)=O`, the T/C is, setting by setting: under setting [5], 120 % of control; under setting [6], 120 % of control; (dose: 100.0 mg/kg/injection, schedule: Q01DX010 (ip), vehicle: saline) 160 % of control and 177 % of control; (dose: 200.0 mg/kg/injection, schedule: Q01DX010 (ip), vehicle: saline) 122 % of control.
Consider `Cn1cnc([N+](=O)[O-])c1Sc1nc(N)nc2nc[nH]c12`, for which the T/C (dose: 0.25 mg/kg/injection, schedule: Q01DX Z (ip), vehicle: carboxymethylcellulose (CMC)) was 90 % of control; the T/C (dose: 0.5 mg/kg/injection, schedule: Q01DX Z (ip), vehicle: carboxymethylcellulose (CMC)) was 110 % of control; the T/C (dose: 1.0 mg/kg/injection, schedule: Q01DX Z (ip), vehicle: carboxymethylcellulose (CMC)) is 111 % of control; the T/C (dose: 2.0 mg/kg/injection, schedule: Q01DX Z (ip), vehicle: carboxymethylcellulose (CMC)) was 110 % of control; the T/C under setting [7] is 86 % of control.
On to `CS(=O)(=O)OCCCCOS(C)(=O)=O`, for which the T/C is 89 % of control (dose: 0.78 mg/kg/injection, schedule: Q01DX Z (ip), vehicle: methylcellulose (MC)); 110 % of control (dose: 6.25 mg/kg/injection, schedule: Q01DX010 (ip), vehicle: saline); 86 % of control and 100 % of control (dose: 12.5 mg/kg/injection, schedule: Q01DX010 (ip), vehicle: saline); 86 % of control and 100 % of control under setting [5]; 95 % of control (dose: 25.0 mg/kg/injection, schedule: Q01DX Z (ip), vehicle: methylcellulose (MC)); 90 % of control and 100 % of control under setting [6]. Besides, under “dose: 50.0 mg/kg/injection, schedule: Q01DX Z (ip), vehicle: methylcellulose (MC)”, the T/C is 92 % of control.
As to `O=c1cn[nH]c(=O)[nH]1`, the T/C runs as follows: (dose: 4.0 mg/kg/injection, schedule: Q01DX Z (ip), vehicle: carboxymethylcellulose (CMC)) 102 % of control; under setting [7], 93 % of control; (dose: 62.5 mg/kg/injection, schedule: Q01DX010 (ip), vehicle: saline) 95 % of control; (dose: 125.0 mg/kg/injection, schedule: Q01DX010 (ip), vehicle: saline) 95 % of control; (dose: 125.0 mg/kg/injection, schedule: Q01DX Z (ip), vehicle: carboxymethylcellulose (CMC)) 123 % of control and 94 % of control; (dose: 250.0 mg/kg/injection, schedule: Q01DX010 (ip), vehicle: saline) 90 % of control and 95 % of control. The T/C reads like this: (dose: 250.0 mg/kg/injection, schedule: Q01DX Z (ip), vehicle: carboxymethylcellulose (CMC)) 117 % of control; (dose: 500.0 mg/kg/injection, schedule: Q01DX010 (ip), vehicle: saline) 110 % of control and 100 % of control; (dose: 500.0 mg/kg/injection, schedule: Q01DX Z (ip), vehicle: carboxymethylcellulose (CMC)) 117 % of control; (dose: 1000.0 mg/kg/injection, schedule: Q01DX Z (ip), vehicle: carboxymethylcellulose (CMC)) 97 % of control.
On to `Nc1nc(SCc2ccccc2)c2[nH]cnc2n1`, for which the T/C (dose: 4.7 mg/kg/injection, schedule: Q01DX Z (ip), vehicle: carboxymethylcellulose (CMC)) was 91 % of control; the T/C (dose: 8.0 mg/kg/injection, schedule: Q01DX010 (ip), vehicle: saline) is 110 % of control and 116 % of control; the T/C (dose: 9.4 mg/kg/injection, schedule: Q01DX Z (ip), vehicle: carboxymethylcellulose (CMC)) is 90 % of control; the T/C (dose: 16.0 mg/kg/injection, schedule: Q01DX010 (ip), vehicle: saline) is 116 % of control and 105 % of control; the T/C (dose: 18.75 mg/kg/injection, schedule: Q01DX Z (ip), vehicle: carboxymethylcellulose (CMC)) is 100 % of control; the T/C (dose: 32.0 mg/kg/injection, schedule: Q01DX010 (ip), vehicle: saline) was 110 % of control and 122 % of control. For the same compound, the T/C (dose: 64.0 mg/kg/injection, schedule: Q01DX010 (ip), vehicle: saline) is 105 % of control.
`CSCS(=O)C[C@H](CO)NC(=O)/C=C/c1c(C)[nH]c(=O)[nH]c1=O` (some centres not stated): the T/C is 92 % of control (dose: 0.06 mg/kg/injection, schedule: Q01DX Z (ip), vehicle: saline); 93 % of control (dose: 0.12 mg/kg/injection, schedule: Q01DX Z (ip), vehicle: saline); 107 % of control and 97 % of control (dose: 0.25 mg/kg/injection, schedule: Q01DX Z (ip), vehicle: saline); 92 % of control and 102 % of control (dose: 0.5 mg/kg/injection, schedule: Q01DX Z (ip), vehicle: saline); 90 % of control (dose: 1.0 mg/kg/injection, schedule: Q01DX Z (ip), vehicle: saline).

The record behind these values is PubChem BioAssay AID246 (DTP/NCI, 2004).
